Publication PMC2861344 (Neuropharmacology, 2010)

Experiments:
[1] = molecular target: T1, NR1aNR2A NMDA receptor (NR2A subunit) (Rattus norvegicus, UniProt P35439+Q00959); assay: whole-cell patch clamp, agonist concentration-response; assay type: cell-based
[2] = molecular target: T2, NR1aNR2B NMDA receptor (NR2B subunit) (Rattus norvegicus, UniProt P35439+Q00960); assay: as above; assay type: cell-based
[3] = molecular target: T1, NR1aNR2A NMDA receptor (NR2A subunit); assay: whole-cell patch clamp, inhibition of EC30 NMDA current; assay type: cell-based; conditions: read-out: % inhibition at 100 μM
[4] = molecular target: T2, NR1aNR2B NMDA receptor (NR2B subunit); assay: as above; assay type: cell-based; conditions: read-out: % inhibition at 100 μM
[5] = tested on: NMDA receptor (native, hippocampal neurons); assay type: cell-based, Mus musculus

T2 sequence (Q00960 27-1482, other chains not shown): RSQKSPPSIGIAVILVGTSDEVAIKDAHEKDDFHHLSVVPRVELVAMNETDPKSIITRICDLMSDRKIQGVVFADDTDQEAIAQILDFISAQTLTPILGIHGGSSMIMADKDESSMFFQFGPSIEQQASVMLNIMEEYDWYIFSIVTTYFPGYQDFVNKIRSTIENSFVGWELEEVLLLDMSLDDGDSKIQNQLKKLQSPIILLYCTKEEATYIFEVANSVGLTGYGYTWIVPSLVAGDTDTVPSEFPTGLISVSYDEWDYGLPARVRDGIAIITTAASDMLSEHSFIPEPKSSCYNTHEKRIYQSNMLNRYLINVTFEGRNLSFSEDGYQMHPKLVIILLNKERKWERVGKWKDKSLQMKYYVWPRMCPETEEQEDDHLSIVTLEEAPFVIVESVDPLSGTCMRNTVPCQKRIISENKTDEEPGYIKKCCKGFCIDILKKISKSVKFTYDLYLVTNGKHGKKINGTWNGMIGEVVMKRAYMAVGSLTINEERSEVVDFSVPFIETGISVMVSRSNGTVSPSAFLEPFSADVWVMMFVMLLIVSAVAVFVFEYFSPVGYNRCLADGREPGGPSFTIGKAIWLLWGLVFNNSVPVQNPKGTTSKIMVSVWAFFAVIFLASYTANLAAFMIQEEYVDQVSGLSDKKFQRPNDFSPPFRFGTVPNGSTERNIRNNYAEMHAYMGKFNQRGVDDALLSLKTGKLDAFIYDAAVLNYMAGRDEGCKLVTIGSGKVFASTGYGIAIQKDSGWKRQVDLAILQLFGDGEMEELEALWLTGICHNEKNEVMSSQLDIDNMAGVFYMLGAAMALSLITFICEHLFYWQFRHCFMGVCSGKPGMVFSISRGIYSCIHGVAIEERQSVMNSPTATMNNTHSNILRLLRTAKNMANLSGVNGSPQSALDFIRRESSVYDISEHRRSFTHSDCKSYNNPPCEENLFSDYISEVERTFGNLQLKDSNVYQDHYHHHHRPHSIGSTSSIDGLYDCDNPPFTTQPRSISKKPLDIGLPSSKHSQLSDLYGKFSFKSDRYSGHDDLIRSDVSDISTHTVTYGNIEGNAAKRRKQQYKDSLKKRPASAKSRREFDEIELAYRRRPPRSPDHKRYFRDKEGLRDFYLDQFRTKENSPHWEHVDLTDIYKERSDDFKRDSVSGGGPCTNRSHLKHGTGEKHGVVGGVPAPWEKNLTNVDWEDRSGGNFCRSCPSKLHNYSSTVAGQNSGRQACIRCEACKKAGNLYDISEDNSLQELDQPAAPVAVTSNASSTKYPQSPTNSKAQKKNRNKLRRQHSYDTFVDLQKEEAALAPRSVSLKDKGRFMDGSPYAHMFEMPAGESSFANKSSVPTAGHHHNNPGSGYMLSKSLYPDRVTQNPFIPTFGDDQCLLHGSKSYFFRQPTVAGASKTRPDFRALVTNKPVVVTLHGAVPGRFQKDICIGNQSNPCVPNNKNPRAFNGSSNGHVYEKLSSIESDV
T1 sequence (Q00959 23-1464, other chains not shown): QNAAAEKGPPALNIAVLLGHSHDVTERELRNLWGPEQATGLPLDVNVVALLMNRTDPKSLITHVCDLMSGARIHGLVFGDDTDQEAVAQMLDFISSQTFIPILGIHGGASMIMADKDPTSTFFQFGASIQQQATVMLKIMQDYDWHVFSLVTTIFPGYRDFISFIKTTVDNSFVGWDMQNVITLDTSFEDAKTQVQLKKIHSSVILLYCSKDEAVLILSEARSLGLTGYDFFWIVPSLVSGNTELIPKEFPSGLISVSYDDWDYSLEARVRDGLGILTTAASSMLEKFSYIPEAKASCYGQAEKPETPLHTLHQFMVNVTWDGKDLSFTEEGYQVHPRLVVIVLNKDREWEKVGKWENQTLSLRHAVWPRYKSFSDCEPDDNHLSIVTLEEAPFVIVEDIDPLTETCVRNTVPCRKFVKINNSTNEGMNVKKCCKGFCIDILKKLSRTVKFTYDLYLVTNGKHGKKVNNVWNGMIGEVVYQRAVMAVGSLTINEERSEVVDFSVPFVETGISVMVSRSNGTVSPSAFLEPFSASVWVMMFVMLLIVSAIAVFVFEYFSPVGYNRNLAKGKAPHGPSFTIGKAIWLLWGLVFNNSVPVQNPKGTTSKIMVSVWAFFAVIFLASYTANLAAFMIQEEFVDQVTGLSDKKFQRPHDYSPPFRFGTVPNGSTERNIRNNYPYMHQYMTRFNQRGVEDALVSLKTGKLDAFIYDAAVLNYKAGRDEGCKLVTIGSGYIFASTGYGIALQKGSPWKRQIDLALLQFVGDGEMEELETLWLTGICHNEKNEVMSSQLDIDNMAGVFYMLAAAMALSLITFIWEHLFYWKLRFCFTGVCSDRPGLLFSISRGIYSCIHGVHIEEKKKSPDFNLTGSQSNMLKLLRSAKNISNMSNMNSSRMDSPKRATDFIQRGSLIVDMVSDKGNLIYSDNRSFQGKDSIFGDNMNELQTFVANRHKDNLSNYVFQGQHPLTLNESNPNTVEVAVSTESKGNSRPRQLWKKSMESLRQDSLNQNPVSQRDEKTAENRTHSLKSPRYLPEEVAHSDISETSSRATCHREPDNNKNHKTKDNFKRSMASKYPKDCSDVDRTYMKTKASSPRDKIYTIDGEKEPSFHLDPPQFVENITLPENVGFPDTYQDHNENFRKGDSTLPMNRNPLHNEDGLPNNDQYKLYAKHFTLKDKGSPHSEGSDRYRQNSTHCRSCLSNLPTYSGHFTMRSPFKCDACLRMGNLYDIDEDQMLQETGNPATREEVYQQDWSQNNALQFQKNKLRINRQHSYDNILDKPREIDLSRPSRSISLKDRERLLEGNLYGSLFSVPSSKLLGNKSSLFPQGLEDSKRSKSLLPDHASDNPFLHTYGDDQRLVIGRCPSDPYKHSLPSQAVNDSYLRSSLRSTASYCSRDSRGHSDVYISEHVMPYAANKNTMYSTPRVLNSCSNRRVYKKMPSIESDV

## CN[C@H](CC(=O)O)C(=O)O [NMDA]
[1]
  EC50: 44 ± 5.6 µM
[2]
  EC50: 14 ± 1.3 µM

## O=c1c(-c2ccc(O)cc2)coc2cc(O)cc(O)c12 [genistein]
[3]
  inhibition at 100 µM: 20 ± 1.4%
[4]
  inhibition at 100 µM: 26 ± 2%

## O=c1c(-c2ccc(O)cc2)coc2cc(O)ccc12 [daidzein, 4′,7-dihydroxyisoflavone]
[5]
  % of control current at 100 μM: 68 ± 1.6
